The source of these data is patent US12029716B2, “Derivatives of korormicin useful as antibiotics” (Viotika Life Sciences Inc., priority 2015, dated 2024).

In data set [1] the test system is Enterococcus faecalis. Kind of data set: Growth of free-living bacteria in liquid medium (OD600). The settings on record: 1.0 to 50 μM.
The subject of data set [2] is HEK293 cells infected with C. trachomatis. Description: Intracellular sodium in HEK293 cells infected with C. trachomatis. In kind it is cell-based, human. The settings on record: 1 and 2.5 μM (low μM). On the procedure: (§1) pHrodo™ Green AM and CoroNa Green Sodium Indicator (both Molecular Probes, Invitrogen) were used to measure intracellular pH (pHi) and intracellular sodium (Na^+i) concentration. HEK293 cells were seeded on 24 well plates and infected with C. trachomatis after overnight incubation in DMEM with 5% FBS. After 2 hours of incubation with C. trachomatis cells were treated with different concentrations of PEG-2S and subjected to pHi and Na^+i measurement at different time points according to manufacturer's protocols. In all assessments calibration curves were performed prior to the experiments. Fluorescent inverted microscope (TE-2000s Nikon) was used to obtain images and mean intensity was quantified using NIS Elements imaging software (Nikon, Mississauga, ON).

Data set [3] concerns Lactococcus lactis. Kind of data set: Growth of free-living bacteria in liquid medium (OD600). The settings on record: 1.0 to 50 μM.
In data set [4] the test system is primary Vascular Smooth Muscle cells. Description: Cell toxicity / proliferation assay, primary vascular smooth muscle cells. In kind it is cell-based, human. The protocol: (§2) Cell Toxicity Assay was performed as follows. HeLa, HEK293 and primary VSM cells were seeded at 5×10^3 cells/well in 96-well plates and incubated with Korormicin, PEG-2 or homoserine lactones in DMEM containing 1% fetal bovine serum (FBS; Invitrogen Corp.). After 48 hours, the number of living cells was determined by a colorimetric enzyme assay, based on a cytoplasmic enzyme activity present in viable cells.
Cells were seeded at 5×10^3 cells/well in 96-well plates and incubated with C. trachomatis in DMEM containing 1% fetal bovine serum (FBS; Invitrogen Corp.). After 48 hours, the number of living cells was determined by a colorimetric enzyme assay (CellTiter 96 Cell Proliferation Assay; Promega Corporation, Madison, WI) based on a cytoplasmic enzyme activity present in viable cells. (Cory et al. Use of an aqueous soluble tetrazolium/formazan assay for cell growth assays in culture. Cancer Commun. 1991; 3:207-212). The absorbance of a formazan product in tissue culture media was measured at 500 nm using a microplate reader.

Data set [5] has as its system C. difficile ATCC 700057. Kind of data set: Susceptibility test of Clostridium difficile growth. It is filed as cell-based. The settings on record: 0.5 μM-50 μM. The protocol:
Evaluation of a PEG-2S against Clostridium difficile (C. difficile ATCC 700057) was performed by Drop method on pre-reduced BAK plates according to Performance Standards for Antimicrobial Susceptibility Testing (Methods for Antimicrobial Susceptibility Testing of Anaerobic Bacteria; Approved Standard—Eighth Edition; Volume 32 Number 5, 2012).

Data set [6] is described as follows: physchem. The settings on record: organic solvent or mixture. It is filed as physicochemical.
Data set [7] deals with HEK293 cells infected with C. trachomatis. Kind of data set: Intracellular pH in HEK293 cells infected with C. trachomatis. It is filed as cell-based, human. The protocol:
as §1

Data set [8] deals with T1, Na^+-NQR (Vibrio cholerae serotype O1, UniProt Q9KPS2).
T1 construct: being placed in its native membrane; endogenous in cells; sub-bacterial membrane vesicles made by French press
Kind of data set: Na+-NQR activity (dNADH oxidation) in sub-bacterial V. cholerae vesicles. It is filed as biochemical.

In data set [9] the test system is Chlamydia trachomatis. Kind of data set: C. trachomatis infection of HeLa cells (chlamydial inclusions, immunocytochemistry). In kind it is cell-based. The settings on record: for MCC2, Minimal Chlamydicidal Concentration: after 2 passages with treatment. On the procedure:
Chlamydia trachomatis (C. trachomatis) propagation and treatment were carried out as follows. C. trachomatis was propagated in HeLa cells. The titer of C. trachomatis was determined in cyclohexamide-treated HeLa cells, and concentrations used were expressed as inclusion forming units (IFU) per mL.
Assessment of the level of infection was determined as follows. HeLa cells were seeded on glass coverslips in 24-well plates at 3×10^4 cells/well and inoculated with C. trachomatis and then treated with antibiotic (or other compounds of interest). After 48 hours, the infected cells were fixed with 100% methanol and then incubated with anti-Chlamydia monoclonal antibody. Inclusion bodies were visualized by staining with FITC-conjugated secondary antibody and DAPI as counterstaining. The samples were examined by a fluorescence microscopy. Number of inclusions was calculated per 100 cells.
Assessment of antichlamydial activity of Korormicin (Scheme shown in FIG. 1) and PEG-2 (Scheme shown in FIG. 2) were performed as follows. Cells were infected with C. trachomatis and treated with different concentrations of antibiotic of choice. After 48 h of C. trachomatis was collected (P1) and used to infect fresh cells. Subsequent collections of C. trachomatis were used to obtain P2, P3, P4 and P5 stocks of C. trachomatis. Dilution of C. trachomatis used to infect cells after treatment with PEG-2 had to be minimized in order to visualize inclusions. Last passage collection of C. trachomatis (P5) of Korormicin treatment and all collected of passages of C. trachomatis treated with PEG-2 were used to establish infectivity of treated Chlamydia (Scheme shown in FIG. 3).
For MIC50 (Minimal Concentration of the antibiotic that inhibits formation of chlamydial inclusions on 50%) determination HeLa cells were grown in 24-well or 96 well plates overnight prior to chlamydial inoculation. Elementary bodies were applied to the cells in small volume of SPG (0.22 M sucrose, 8.6 mM Na2HPO4, 3.8 mM KH2PO4, 5 mM glutamic acid, 0.2 μm-filtered, pH 7.4) and after 2 hours of incubation unattached elementary bodies were removed and infected cells were treated with different concentration of antibiotics in Dulbecco's modified Eagle's medium (DMEM, Invitrogen) with 5% fetal bovine serum (FBS, Invitrogen) in the presence of cycloheximide (1.0 μg/ml). After 42 h inclusions were visualized by immunocytochemistry.
To determent chlamydicidal effect of Korormicin (Scheme 1) and PEG-2 (Scheme 2) Hela cells were infected with C. trachomatis and treated with different concentrations of antibiotics. After 48 h of C. trachomatis was collected (P1) and used to infect fresh cells. Subsequent collections of C. trachomatis were used to obtain P2, P3, P4 and P5 stocks of C. trachomatis. Dilution of C. trachomatis used to infect cells after treatment with PEG-2 had to be minimized in order to visualize inclusions. (See Scheme 2 below). Last passage collection of C. trachomatis (P5) of Korormicin treatment and all collected of passages of C. trachomatis treated with PEG-2 were used to establish infectivity of treated C. trachomatis. Minimal chlamydicidal concentration (MCC2) for Korormicin, PEG-2 and PEG-2S was calculated after 2 passages of infection with treatment and reflect inhibition of infection for more than 90%. In all experiments inclusions were visualized by immunocytochemistry.
Cells were seeded on glass coverslips in 24-well plates (2-4×10^4 cells/well) or on glass-bottom 96 well plates (10^4 cells/well), and after overnight inoculated with C. trachomatis. After 42 hours, the infected cells were fixed with 90% acetone (or 100% methanol in case of 96 well plates) and then incubated with anti-Chlamydia antibody (Thermo Fisher Scientific). Alexa Fluor 488-conjugated anti-rabbit IgG (Molecular Probes) was used as secondary antibody. DAPI staining solution (300 nM) was added to the coverslips to identify nuclei. […]

For data set [10], the system named is Escherichia coli. Description: Growth of free-living bacteria in liquid medium (OD600). The settings on record: 1.0 to 50 μM.
The subject of data set [11] is HeLa cells infected with C. trachomatis. Kind of data set: Intracellular acidification of HeLa cells infected with C. trachomatis. It is filed as cell-based, human. An excerpt:
The mechanism of action of PEG-2 was also investigated by monitoring intracellular acidification of infected cells treated with PEG-2. If PEG-2 is working through the inhibition of Na^+-NQR and a sodium motive force, then it would be expected to have an effect on intracellular Na^+ and H^+ concentrations within infected cells. HeLa cells were infected with C. trachomatis and intracellular acidification was monitored with fluorescent indicator dyes.

For data set [12], the system named is HeLa cell line. Kind of data set: Cell toxicity assay, HeLa cells. It is filed as cell-based, human. The settings on record: HeLa, concentrations of up to 50 μM. The protocol:
as §2

Data set [13] concerns HEK293 cells. Description: Cell toxicity assay, HEK293 cells. In kind it is cell-based, human. The settings on record: HEK293, concentrations of up to 50 μM. The protocol:
as §2

Where [14] appears, read: primary Vascular Smooth Muscle cells.
[15] abbreviates: inhibition of infection for more than 90%.
[16] abbreviates: read-out: MIC502, Minimal Inhibitory Concentration after the second treatment, second treatment.

≈ marks a conversion by molar mass, not a printed value. Entries after “also recorded” stand apart in the source; their conditions may differ. Like-named read-outs stand apart in the source and are kept apart here.

As usually defined, the solubility is how much of the substance goes into solution per volume. Take `CCCCCCC/C=C/C=C\[C@H](O)CC(=O)NC1=C[C@](C)(CC)OC1=O` [PEG-2S]: the effect on growth result in data set [1] is “did not affect the growth”; in [3], “did not affect the growth”; in data set [5], “does not affect the growth”; in data set [10] it was “did not affect the growth”. Moreover, in [2], the “effect on intracellular sodium accumulation / changes of [Na+]” value is “sensitive; also recorded: prevents changes”. Moreover, the “toxicity to primary cells (in words)” value in data set [4] (setting [14]) is “low cytotoxicity”. Also, the solubility in data set [6] was less than 25 mM. Besides, the “internal pH of infected cells” value in data set [7] (1.0 μM, within first 5 hours of infection) is listed as roughly 7.6. Further, the “effect on chlamydia-induced acidification” value in data set [7] (2.5 μM) was “prevented the chlamydia-induced acidification completely”. For the same compound, the “effect on changes of cytoplasmic pH” value in data set [7] (1 and 2.5 μM) is given as “prevents changes of cytoplasmic pH”. Further, the IC50 in [8] came to 0.00176 µM; in data set [9] (Chlamydia trachomatis, HeLa, read-out: IC50(Chl), half-maximal inhibition of the proliferation of Chlamydia trachomatis, cell culture experimental model) it was 0.7 µM; in data set [9] (setting [16]), 0.25 µM. In addition, the results for the “MCC2, Minimal Chlamydicidal Concentration” value in data set [9] and in data set [9] (setting [15]) were 0.36 µg/mL and 1.0 µM, respectively. Also, the “MIC501, Minimal Inhibitory Concentration after the treatment” value in data set [9] (first treatment) was 0.25 mg/L (≈ 0.688 µM). The “MIC502, Minimal Inhibitory Concentration after the second treatment” value in data set [9] (second treatment) came out at 0.09 mg/L (≈ 0.248 µM).

Take `CCCCCCC/C=C/C=C\[C@H](O)CC(=O)NC1=C[C@](C)(CC)OC1=O` [PEG-2]: the “delay of the initial C. trachomatis-induced acidification” value in data set [11] is given as “at least 2 hours”. The “effect on the following acidification” value in [11] is on record as “diminishes the following acidification”. Besides, the toxic effects result is given as “no toxic effects” in data set [12]; “no toxic effects” in data set [4] (primary Vascular Smooth Muscle cells, concentrations of up to 50 μM); “no toxic effects” in data set [13]. Besides, the “toxicity to primary cells (in words)” value in data set [4] (setting [14]) is listed as “low cytotoxicity; also recorded: non-toxic”. Further, the “toxic effects on primary cell cultures (VSMC)” value in data set [4] (up to 20 μM) is “no toxic effects”. For the same compound, the “efficacy against C. trachomatis infection (in words)” value in data set [9] is “effective”. The “decrease of infectivity (number of chlamydial inclusions in the next passage)” value in data set [9] (1st treatment, 15 μM) is listed as roughly 5 fold. Further, in data set [9] (5 consecutive treatments, 15 μM), the “number of inclusions, of control” value is reported as 0.01%. For the same compound, the “MCC2, Minimal Chlamydicidal Concentration” value in data set [9] worked out at 5.45 µg/mL; in data set [9] (setting [15]), 15 µM. For the same compound, the “number of detectable inclusions lower” value in [9] (after 5 consecutive treatments, 15 μM) was 10,000 times. For the same compound, in data set [9] (first treatment), the “MIC501, Minimal Inhibitory Concentration after the treatment” value was 3.63 mg/L (≈ 9.99 µM). In addition, the “size of chlamydial inclusions” value in data set [9] (fluorescence microscopy) is recorded as “noticeably smaller”. For the same compound, the IC50 in data set [9] (read-out: MIC501, Minimal Inhibitory Concentration after the treatment, first treatment, 50% inhibition of inclusion formation) came to 10 µM; in data set [9] (setting [16]), 4 µM. Further, the “MIC502, Minimal Inhibitory Concentration after the second treatment” value in data set [9] (second treatment) turned out to be 1.45 mg/L (≈ 3.99 µM).
